Laboratory results taken from patent publication US20240092758A1, “IMIDAZOLO INDAZOLE COMPOUNDS AS JAK INHIBITORS” (Theravance Biopharma R&D IP, LLC, priority 2021, published 2024).

Experiments:
JAK1 = JAK1 (Homo sapiens (Human), UniProt P23458); assay: Biochemical JAK kinase assay (LanthaScreen), JAK1; conditions: for Ki: read-out: JAK1 pKi (converted)
Procedure, shortened: (§1)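 LanthaScreen format: phospho-STAT1 (pTyr701) detected with 2 nM Tb antibody after 10 mM EDTA quench. Kinase step used Km-level ATP and 200 nM STAT1 peptide, 1 h at ambient after 1 h pre-incubation. Inhibition fitted to IC50, reported as pKi.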

[1] = test system: IL-13 induced STAT6 phosphorylation in BEAS-2B human lung epithelial cells; assay: Cellular JAKI potency assay (BEAS-2B); type: cell-based; conditions: Homo sapiens, BEAS-2B, BEAS-2B cells, read-out: BEAS2B pIC50 (converted)
Procedure, shortened: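 BEAS-2B cells were preincubated with compound (0.1% DMSO) in HBSS/HEPES/BSA for 1 h at 37 °C, then stimulated with IL-13 (80 ng/mL before addition) for 30 min. After lysis, pSTAT6 (Tyr641) was quantified by AlphaLISA SureFire; IC50 from a 4-parameter fit of percent inhibition, reported as pIC50.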

JAK2 = JAK2 (Homo sapiens (Human), UniProt O60674); assay: Biochemical JAK kinase assay (LanthaScreen), JAK2; conditions: for Ki: read-out: JAK2 pKi (converted)
Procedure, shortened: as §1

Chain of JAK1 (P23458 whole entry): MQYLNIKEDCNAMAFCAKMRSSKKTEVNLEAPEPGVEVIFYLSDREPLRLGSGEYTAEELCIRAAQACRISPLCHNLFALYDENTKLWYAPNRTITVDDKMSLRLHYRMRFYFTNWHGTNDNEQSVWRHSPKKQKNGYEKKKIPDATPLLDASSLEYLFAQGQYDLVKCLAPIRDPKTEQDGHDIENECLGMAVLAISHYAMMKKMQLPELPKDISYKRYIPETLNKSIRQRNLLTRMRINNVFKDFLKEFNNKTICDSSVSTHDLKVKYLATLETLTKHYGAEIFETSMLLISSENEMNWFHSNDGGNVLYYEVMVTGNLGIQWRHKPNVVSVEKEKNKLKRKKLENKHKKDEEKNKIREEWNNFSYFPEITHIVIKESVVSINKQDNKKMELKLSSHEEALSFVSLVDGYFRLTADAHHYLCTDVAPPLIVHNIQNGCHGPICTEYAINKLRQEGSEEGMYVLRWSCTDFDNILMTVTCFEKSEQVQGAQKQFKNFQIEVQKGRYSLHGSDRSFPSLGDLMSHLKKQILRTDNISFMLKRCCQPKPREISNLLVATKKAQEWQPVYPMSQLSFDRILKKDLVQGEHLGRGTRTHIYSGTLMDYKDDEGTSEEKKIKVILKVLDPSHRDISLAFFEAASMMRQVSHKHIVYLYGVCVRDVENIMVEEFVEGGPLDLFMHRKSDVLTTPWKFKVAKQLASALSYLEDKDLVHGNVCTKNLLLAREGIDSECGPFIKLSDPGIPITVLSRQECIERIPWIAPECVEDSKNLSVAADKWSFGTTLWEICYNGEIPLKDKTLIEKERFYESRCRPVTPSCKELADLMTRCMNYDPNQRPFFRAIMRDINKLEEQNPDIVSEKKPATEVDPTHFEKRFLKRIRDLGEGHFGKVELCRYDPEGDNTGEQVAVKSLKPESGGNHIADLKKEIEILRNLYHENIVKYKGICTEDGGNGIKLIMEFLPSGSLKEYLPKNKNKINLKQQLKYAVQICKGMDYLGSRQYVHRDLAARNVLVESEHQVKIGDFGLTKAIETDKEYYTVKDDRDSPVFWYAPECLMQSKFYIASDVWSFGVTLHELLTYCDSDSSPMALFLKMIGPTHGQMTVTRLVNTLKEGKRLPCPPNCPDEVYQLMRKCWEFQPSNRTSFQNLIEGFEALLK
Chain of JAK2 (O60674 whole entry): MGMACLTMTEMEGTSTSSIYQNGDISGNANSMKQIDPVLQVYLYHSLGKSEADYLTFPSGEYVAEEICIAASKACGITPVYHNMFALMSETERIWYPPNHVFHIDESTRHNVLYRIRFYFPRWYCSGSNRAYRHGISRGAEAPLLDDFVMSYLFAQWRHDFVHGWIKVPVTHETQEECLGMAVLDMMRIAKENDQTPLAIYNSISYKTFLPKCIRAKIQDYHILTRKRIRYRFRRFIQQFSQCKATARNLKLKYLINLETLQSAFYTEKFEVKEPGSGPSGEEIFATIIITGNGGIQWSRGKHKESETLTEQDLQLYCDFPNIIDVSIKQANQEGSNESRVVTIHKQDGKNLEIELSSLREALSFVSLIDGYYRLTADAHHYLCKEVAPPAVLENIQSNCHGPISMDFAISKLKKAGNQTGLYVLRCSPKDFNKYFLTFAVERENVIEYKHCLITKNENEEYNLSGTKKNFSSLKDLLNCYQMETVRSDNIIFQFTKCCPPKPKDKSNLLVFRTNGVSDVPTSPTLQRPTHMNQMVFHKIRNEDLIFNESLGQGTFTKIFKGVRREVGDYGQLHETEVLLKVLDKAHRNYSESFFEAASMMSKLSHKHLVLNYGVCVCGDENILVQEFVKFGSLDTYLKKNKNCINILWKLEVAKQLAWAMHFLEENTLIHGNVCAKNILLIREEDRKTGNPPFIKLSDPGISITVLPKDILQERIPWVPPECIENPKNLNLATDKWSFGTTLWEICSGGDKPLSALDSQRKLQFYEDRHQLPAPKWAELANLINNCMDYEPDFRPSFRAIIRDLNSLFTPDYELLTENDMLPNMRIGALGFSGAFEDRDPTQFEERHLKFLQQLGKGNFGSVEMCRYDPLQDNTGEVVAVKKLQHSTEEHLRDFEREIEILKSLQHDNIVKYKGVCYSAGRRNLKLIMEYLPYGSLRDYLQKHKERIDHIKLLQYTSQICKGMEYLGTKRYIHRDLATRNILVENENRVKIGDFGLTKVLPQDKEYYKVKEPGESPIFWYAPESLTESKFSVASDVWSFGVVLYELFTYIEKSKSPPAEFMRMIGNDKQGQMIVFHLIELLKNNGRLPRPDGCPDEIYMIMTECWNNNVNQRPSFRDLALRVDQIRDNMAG

Row | Structure (SMILES) | Ki (JAK1) [nM] | IC50 [1] [nM] | Ki (JAK2) [nM] | JAK2 pKi (JAK2) | JAK1 pKi (JAK1)
1 | CCc1cc(O)ccc1-c1ccc2c(-c3nc(C4=CCN(C(C)=O)C4)c[nH]3)n[nH]c2c1F [Example 171] | 0.1 to 1 | 10 to 31.6 | 0.1 to 1 |  | 
2 | CCc1cc(O)ccc1-c1ccc2c(-c3nc(C4=CCN(S(C)(=O)=O)C4)c[nH]3)n[nH]c2c1F [Example 172] | 1 to 10 | 10 to 31.6 | 0.1 to 1 |  | 
3 | CCc1cc(O)ccc1-c1ccc2c(-c3nc(C4=CCN(C[C@H]5COCCN5)CC4)c[nH]3)n[nH]c2c1F [Example 190] | 0.1 to 1 | 31.6 to 100 | 0.1 to 1 |  | 
4 | CCc1cc(O)ccc1-c1ccc2c(-c3nc(C4=CCN(C[C@@H]5COCCN5)C4)c[nH]3)n[nH]c2c1 [Example 200] | 0.1 to 1 | 10 to 31.6 |  | A (A represents a pKi value ≥10 (Ki≤0.1 nM)) | 
5 | CCc1cc(O)ccc1-c1ccc2c(-c3nc(C4=CC5COCC(C4)N5)c[nH]3)n[nH]c2c1F (stereo not drawn) [Example 228] | 0.1 to 1 | 10 to 31.6 | 0.1 to 1 |  | 
6 | CCc1cc(O)ccc1-c1ccc2c(-c3nc(C4=CCC5(CNC5)OC4)c[nH]3)n[nH]c2c1 [Example 229] | 0.1 to 1 | 31.6 to 100 |  | A (A represents a pKi value ≥10 (Ki≤0.1 nM)) | 
7 | CCc1cc(O)ccc1-c1ccc2c(-c3nc(C4=C(C)CCNC4)c[nH]3)n[nH]c2c1 [Example 232] | 0.1 to 1 | 3.16 to 10 | 0.1 to 1 |  | 
8 | CCc1cc(O)ccc1-c1ccc2c(-c3nc(C4=CCCNC4C)c[nH]3)n[nH]c2c1 (stereo not drawn) [Example 233] | 0.1 to 1 | 10 to 31.6 | 0.1 to 1 |  | 
9 | CCc1cc(O)ccc1-c1ccc2c(-c3nc(C4=CCCNC4C)c[nH]3)n[nH]c2c1F (stereo not drawn) [Example 237] | 0.1 to 1 | 10 to 31.6 |  | A (A represents a pKi value ≥10 (Ki≤0.1 nM)) | 
10 | CCc1cc(O)ccc1-c1ccc2c(-c3nc(C4=C[C@H](CO)NC4)c[nH]3)n[nH]c2c1 [Example 239] | 0.1 to 1 | 31.6 to 100 | 0.1 to 1 |  | 
11 | CCc1cc(O)ccc1-c1ccc2c(-c3nc(C4=C[C@@H](CO)NC4)c[nH]3)n[nH]c2c1 [Example 240] | 0.1 to 1 | 31.6 to 100 | 0.1 to 1 |  | 
12 | CCc1cc(O)ccc1-c1ccc2c(-c3nc(C4=C[C@@H](COC)NC4)c[nH]3)n[nH]c2c1 [Example 242] |  | 3.16 to 10 | 0.1 to 1 |  | A (A represents a pKi value ≥10 (Ki≤0.1 nM))
13 | CCc1cc(O)ccc1-c1ccc2c(-c3nc(C4=C[C@H](CC#N)NC4)c[nH]3)n[nH]c2c1 [Example 243] |  | 3.16 to 10 |  | A (A represents a pKi value ≥10 (Ki≤0.1 nM)) | A (A represents a pKi value ≥10 (Ki≤0.1 nM))
14 | CCc1cc(O)ccc1-c1ccc2c(-c3nc(C4=C[C@H](CC#N)NC4)c[nH]3)n[nH]c2c1F [Example 247] | 0.1 to 1 | 10 to 31.6 | 0.1 to 1 |  | 
15 | CCc1cc(O)ccc1-c1ccc2c(-c3nc(C4=C[C@@H](CC#N)NC4)c[nH]3)n[nH]c2c1 [Example 248] | 0.1 to 1 | 10 to 31.6 | 0.1 to 1 |  | 
16 | CCc1cc(O)ccc1-c1ccc2c(-c3nc(C4=C[C@@H](CC#N)NC4)c[nH]3)n[nH]c2c1F [Example 249] | 0.1 to 1 | 10 to 31.6 | 0.1 to 1 |  | 
17 | CCc1cc(O)ccc1-c1ccc2c(-c3nc(C4=C[C@H](C(=O)OC)NC4)c[nH]3)n[nH]c2c1F [Example 250] | 0.1 to 1 | 31.6 to 100 | 0.1 to 1 |  | 
18 | CCc1cc(O)ccc1-c1ccc2c(-c3nc(C4=C[C@@H](C(=O)OC)NC4)c[nH]3)n[nH]c2c1F [Example 251] | 0.1 to 1 | 10 to 31.6 | 0.1 to 1 |  | 
19 | CCc1cc(O)ccc1-c1ccc2c(-c3nc(C4=C[C@@H](C(=O)N5CC(N(C)C)C5)NC4)c[nH]3)n[nH]c2c1F [Example 252] | 0.1 to 1 | 100 to 316 | 0.1 to 1 |  | 

Row | Structure (SMILES) | Ki (JAK1) [nM] | IC50 [1] [nM] | Ki (JAK2) [nM] | JAK2 pKi (JAK2) | JAK1 pKi (JAK1)
20 | CCc1cc(O)ccc1-c1ccc2c(-c3nc(C4=C[C@H](CC(=O)OC)NC4)c[nH]3)n[nH]c2c1F [Example 253] |  | 3.16 to 10 |  | A (A represents a pKi value ≥10 (Ki≤0.1 nM)) | A (A represents a pKi value ≥10 (Ki≤0.1 nM))
21 | CCc1cc(O)ccc1-c1ccc2c(-c3nc(C4=C[C@@H](CC(=O)OC)NC4)c[nH]3)n[nH]c2c1F [Example 254] | 0.1 to 1 | 10 to 31.6 | 0.1 to 1 |  | 
22 | CCc1cc(O)ccc1-c1ccc2c(-c3nc(C4=C[C@@H](CC(=O)N(C)C)NC4)c[nH]3)n[nH]c2c1F [Example 256] |  | 31.6 to 100 |  | A (A represents a pKi value ≥10 (Ki≤0.1 nM)) | A (A represents a pKi value ≥10 (Ki≤0.1 nM))
23 | CCc1cc(O)ccc1-c1ccc2c(-c3nc(C4=CC[C@H](C)N(CCO)C4)c[nH]3)n[nH]c2c1F [Example 257] | 0.1 to 1 | 10 to 31.6 | 0.1 to 1 |  | 
24 | CCc1cc(O)ccc1-c1ccc2c(-c3nc(C4=CC[C@H](C)N(CCCO)C4)c[nH]3)n[nH]c2c1F [Example 258] | 0.1 to 1 | 10 to 31.6 | 0.1 to 1 |  | 
25 | CCc1cc(O)ccc1-c1ccc2c(-c3nc(C4=CC[C@H](C)N(C(C)CO)C4)c[nH]3)n[nH]c2c1F (stereo partly drawn) [Example 259] | 0.1 to 1 | 10 to 31.6 | 0.1 to 1 |  | 
26 | CCc1cc(O)ccc1-c1ccc2c(-c3nc(C4=CC[C@H](C)N(CCC(C)(C)O)C4)c[nH]3)n[nH]c2c1F [Example 260] | 0.1 to 1 | 10 to 31.6 | 0.1 to 1 |  | 
27 | CCc1cc(O)ccc1-c1ccc2c(-c3nc(C4=CC[C@H](C)N(C[C@H](C)CO)C4)c[nH]3)n[nH]c2c1F [Example 261] | 0.1 to 1 | 10 to 31.6 | 0.1 to 1 |  | 
28 | CCc1cc(O)ccc1-c1ccc2c(-c3nc(C4=CC[C@H](C)N(C[C@@H](C)CO)C4)c[nH]3)n[nH]c2c1F [Example 262] | 0.1 to 1 | 10 to 31.6 | 0.1 to 1 |  | 
29 | CCc1cc(O)ccc1-c1ccc2c(-c3nc(C4=C[C@H](CO)N(CCO)C4)c[nH]3)n[nH]c2c1F [Example 263] |  | 10 to 31.6 |  | A (A represents a pKi value ≥10 (Ki≤0.1 nM)) | A (A represents a pKi value ≥10 (Ki≤0.1 nM))
30 | CCc1cc(O)ccc1-c1ccc2c(-c3nc(C4=C[C@H](CO)N(CCCO)C4)c[nH]3)n[nH]c2c1F [Example 264] | 0.1 to 1 | 10 to 31.6 |  | A (A represents a pKi value ≥10 (Ki≤0.1 nM)) | 
31 | CCc1cc(O)ccc1-c1ccc2c(-c3nc(C4=CC[C@H](C)N([C@H]5C[C@@H](O)C5)C4)c[nH]3)n[nH]c2c1F [Example 265] | 0.1 to 1 | 3.16 to 10 | 0.1 to 1 |  | 
32 | CCc1cc(O)ccc1-c1ccc2c(-c3nc(C4=CC[C@H](C)N(CCCOC)C4)c[nH]3)n[nH]c2c1F [Example 266] | 0.1 to 1 | 10 to 31.6 | 0.1 to 1 |  | 
33 | CCc1cc(O)ccc1-c1ccc2c(-c3nc(C4=CC[C@H](C)N(CC5COC5)C4)c[nH]3)n[nH]c2c1F [Example 267] | 0.1 to 1 | 10 to 31.6 | 0.1 to 1 |  | 
34 | CCc1cc(O)ccc1-c1ccc2c(-c3nc(C4=CC[C@H](C)N(C5CCOCC5)C4)c[nH]3)n[nH]c2c1F [Example 268] | 0.1 to 1 | 10 to 31.6 | 0.1 to 1 |  | 
35 | CCc1cc(O)ccc1-c1ccc2c(-c3nc(C4=CC[C@H](C)N(C[C@H]5COCCN5)C4)c[nH]3)n[nH]c2c1F [Example 269] | 0.1 to 1 | 31.6 to 100 | 0.1 to 1 |  | 
36 | CCc1cc(O)ccc1-c1ccc2c(-c3nc(C4=CC[C@H](C)N(CCN5CCOCC5)C4)c[nH]3)n[nH]c2c1F [Example 270] | 0.1 to 1 | 10 to 31.6 | 0.1 to 1 |  | 
37 | CCc1cc(O)ccc1-c1ccc2c(-c3nc(C4=CC[C@H](C)N(CCN5CCCC5=O)C4)c[nH]3)n[nH]c2c1F [Example 271] | 0.1 to 1 | 10 to 31.6 | 0.1 to 1 |  | 
38 | CCc1cc(O)ccc1-c1ccc2c(-c3nc(C4=C[C@H](CO)N(CCCOC)C4)c[nH]3)n[nH]c2c1F [Example 272] |  | 3.16 to 10 |  | A (A represents a pKi value ≥10 (Ki≤0.1 nM)) | A (A represents a pKi value ≥10 (Ki≤0.1 nM))
